According to ChEMBL document CHEMBL4477208, “Discovery and Rational Design of Pteridin-7(8H)-one-Based Inhibitors Targeting FMS-like Tyrosine Kinase 3 (FLT3) and Its Mutants” (J Med Chem, 2016):
The source made the active and inactive calls. No cut-off for these calls is given here.

Key:
[1] = system: MV4-11; experiment: Cell cycle arrest in human MV4-11 cells assessed as accumulation at G0/G1 phase at 1 nM after 48 hrs by PI/RNase staining based FACS analysis (reference value: 69.55%); assay type: functional
[2] = system: MV4-11; experiment: Cell cycle arrest in human MV4-11 cells assessed as accumulation at G2 phase at 100 nM after 48 hrs by PI/RNase staining based FACS analysis (reference value: 13.95%); assay type: functional
[3] = system: MV4-11; experiment: Cell cycle arrest in human MV4-11 cells assessed as accumulation at G2 phase at 1000 nM after 48 hrs by PI/RNase staining based FACS analysis (reference value: 13.95%); assay type: functional
[4] = system: MV4-11; experiment: Cell cycle arrest in human MV4-11 cells assessed as accumulation at subG1 phase after 48 hrs by PI/RNase staining based FACS analysis; assay type: functional
[5] = system: MV4-11; experiment: Cell cycle arrest in human MV4-11 cells assessed as accumulation at subG1 phase at 100 nM after 48 hrs by PI/RNase staining based FACS analysis (reference value: 0%); assay type: functional
[6] = system: MV4-11; experiment: Induction of apoptosis in human MV4-11 cells assessed as viable cells at 1 nM after 48 hrs by annexin V/propidium iodide staining based FACS analysis (reference value: 90.60%); assay type: functional; conditions: MV4-11, 48 h, read-out: Activity
[7] = system: MV4-11; experiment: Induction of apoptosis in human MV4-11 cells assessed as early apoptotic cells at 1 nM after 48 hrs by annexin V/propidium iodide staining based FACS analysis (reference value: 6.31%); assay type: functional
[8] = system: MV4-11; experiment: Induction of apoptosis in human MV4-11 cells assessed as late apoptotic cells at 10 nM after 48 hrs by annexin V/propidium iodide staining based FACS analysis (reference value: 3.01%); assay type: functional
[9] = system: MV4-11; experiment: Induction of apoptosis in human MV4-11 cells assessed as viable cells at 100 nM after 48 hrs by annexin V/propidium iodide staining based FACS analysis (reference value: 90.60%); assay type: functional; conditions: MV4-11, 48 h, read-out: Activity
[10] = system: MV4-11; experiment: Induction of apoptosis in human MV4-11 cells assessed as early apoptotic cells at 100 nM after 48 hrs by annexin V/propidium iodide staining based FACS analysis (reference value: 6.31%); assay type: functional
[11] = system: MV4-11; experiment: Induction of apoptosis in human MV4-11 cells assessed as necrotic cells at 100 nM after 48 hrs by annexin V/propidium iodide staining based FACS analysis (reference value: 0.05%); assay type: functional
[12] = Clearance in overnight fasted Sprague-Dawley rat plasma at 1 mg/kg, iv up to 24 hrs by LC-MS/MS analysis; assay type: ADME, organism-based
[13] = Volume of distribution at steady state in overnight fasted Sprague-Dawley rat plasma at 1 mg/kg, iv up to 24 hrs by LC-MS/MS analysis; assay type: ADME, organism-based; conditions: read-out: Vdss
[14] = Tmax in overnight fasted Sprague-Dawley rat plasma at 10 mg/kg administered via oral gavage up to 24 hrs by LC-MS/MS analysis; assay type: ADME, organism-based
[15] = system: MOLT-4; experiment: Antiproliferative activity against human MOLT4 cells after 72 hrs by MTT assay; assay type: functional, cell-based; conditions: MOLT-4, 72 h
[16] = system: RKO; experiment: Antiproliferative activity against human RKO cells after 72 hrs by SRB assay; assay type: functional, cell-based
[17] = system: MV4-11; experiment: Antitumor activity against human MV4-11 cells xenografted in nude BALB/c mouse assessed as tumor growth inhibition at 25 mg/kg, ip qd for 14 days measured every 2 days; assay type: functional; conditions: MV4-11, ip, read-out: TGI
[18] = target: Receptor-type tyrosine-protein kinase FLT3 (Homo sapiens, UniProt P36888, ITD); experiment: Binding affinity to human partial length FLT3 ITD mutant expressed in bacterial expression system after 1 hr
[19] = system: MV4-11; experiment: Antitumor activity against human MV4-11 cells xenografted in nude BALB/c mouse assessed as reduction in tumor cell proliferation by measuring Ki67 positive cells at 50 mg/kg, po qd measured after 1 to 3 days by immunohistochemical assay; assay type: functional, organism-based
[20] = system: MV4-11; experiment: Cell cycle arrest in human MV4-11 cells assessed as cell debris level at 1000 nM after 48 hrs by PI/RNase staining based FACS analysis; assay type: functional
[21] = target: Macrophage colony-stimulating factor 1 receptor (Homo sapiens) (UniProt P07333); experiment: Inhibition of human CSF1R expressed in bacterial system assessed as remaining enzyme activity at 1 uM relative to untreated control
[22] = system: Receptor-type tyrosine-protein kinase FLT3 (Homo sapiens), P36888 [N841I]; experiment: Inhibition of human FLT3 N841I mutant expressed in bacterial system assessed as remaining enzyme activity at 1 uM relative to untreated control
[23] = system: Receptor-type tyrosine-protein kinase FLT3 (Homo sapiens), P36888 [UNDEFINED MUTATION]; experiment: Inhibition of human FLT3 ITD/D835V mutant expressed in mammalian system assessed as remaining enzyme activity at 1 uM relative to untreated control
[24] = target: T1, Receptor-type tyrosine-protein kinase FLT3 (Homo sapiens, UniProt P36888)
T1 sequence (P36888 whole entry): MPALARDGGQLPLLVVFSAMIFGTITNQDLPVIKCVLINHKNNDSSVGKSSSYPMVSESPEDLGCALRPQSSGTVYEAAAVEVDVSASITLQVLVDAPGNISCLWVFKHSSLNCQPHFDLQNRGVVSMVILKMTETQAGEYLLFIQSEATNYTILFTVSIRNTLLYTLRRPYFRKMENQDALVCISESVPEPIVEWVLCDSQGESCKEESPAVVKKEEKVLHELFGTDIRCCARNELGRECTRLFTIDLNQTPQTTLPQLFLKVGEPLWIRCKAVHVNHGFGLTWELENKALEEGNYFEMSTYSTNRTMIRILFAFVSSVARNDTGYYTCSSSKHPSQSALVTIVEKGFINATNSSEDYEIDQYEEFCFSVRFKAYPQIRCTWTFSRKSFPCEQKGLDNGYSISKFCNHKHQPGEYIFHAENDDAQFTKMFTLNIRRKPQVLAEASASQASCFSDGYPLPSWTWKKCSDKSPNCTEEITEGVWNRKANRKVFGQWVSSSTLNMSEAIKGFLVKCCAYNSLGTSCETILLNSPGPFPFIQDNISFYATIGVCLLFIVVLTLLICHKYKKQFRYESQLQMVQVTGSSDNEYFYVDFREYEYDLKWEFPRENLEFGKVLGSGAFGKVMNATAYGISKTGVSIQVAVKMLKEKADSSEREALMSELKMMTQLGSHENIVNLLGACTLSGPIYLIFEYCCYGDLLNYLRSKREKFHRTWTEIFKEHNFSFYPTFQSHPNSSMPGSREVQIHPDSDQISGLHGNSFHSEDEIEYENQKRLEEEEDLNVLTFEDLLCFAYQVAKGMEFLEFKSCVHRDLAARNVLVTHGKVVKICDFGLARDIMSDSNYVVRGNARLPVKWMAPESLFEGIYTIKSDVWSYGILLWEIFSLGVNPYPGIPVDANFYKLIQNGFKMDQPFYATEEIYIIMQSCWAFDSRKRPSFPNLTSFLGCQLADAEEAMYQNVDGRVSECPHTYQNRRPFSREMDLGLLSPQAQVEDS
Description: Inhibition of human N-terminal GST-tagged FLT3 (564 to 993 residues) expressed in baculovirus expression system using peptide FAM-P2 as substrate incubated for 10 mins followed by substrate addition by mobility shift assay

[25] = system: WI-38; experiment: cells; conditions: Homo sapiens, WI-38, 72 h
Description: Antiproliferative activity against human WI38 cells after 72 hrs by SRB assay

Macrophage colony-stimulating factor 1 receptor (Homo sapiens), sequence (P07333 whole entry): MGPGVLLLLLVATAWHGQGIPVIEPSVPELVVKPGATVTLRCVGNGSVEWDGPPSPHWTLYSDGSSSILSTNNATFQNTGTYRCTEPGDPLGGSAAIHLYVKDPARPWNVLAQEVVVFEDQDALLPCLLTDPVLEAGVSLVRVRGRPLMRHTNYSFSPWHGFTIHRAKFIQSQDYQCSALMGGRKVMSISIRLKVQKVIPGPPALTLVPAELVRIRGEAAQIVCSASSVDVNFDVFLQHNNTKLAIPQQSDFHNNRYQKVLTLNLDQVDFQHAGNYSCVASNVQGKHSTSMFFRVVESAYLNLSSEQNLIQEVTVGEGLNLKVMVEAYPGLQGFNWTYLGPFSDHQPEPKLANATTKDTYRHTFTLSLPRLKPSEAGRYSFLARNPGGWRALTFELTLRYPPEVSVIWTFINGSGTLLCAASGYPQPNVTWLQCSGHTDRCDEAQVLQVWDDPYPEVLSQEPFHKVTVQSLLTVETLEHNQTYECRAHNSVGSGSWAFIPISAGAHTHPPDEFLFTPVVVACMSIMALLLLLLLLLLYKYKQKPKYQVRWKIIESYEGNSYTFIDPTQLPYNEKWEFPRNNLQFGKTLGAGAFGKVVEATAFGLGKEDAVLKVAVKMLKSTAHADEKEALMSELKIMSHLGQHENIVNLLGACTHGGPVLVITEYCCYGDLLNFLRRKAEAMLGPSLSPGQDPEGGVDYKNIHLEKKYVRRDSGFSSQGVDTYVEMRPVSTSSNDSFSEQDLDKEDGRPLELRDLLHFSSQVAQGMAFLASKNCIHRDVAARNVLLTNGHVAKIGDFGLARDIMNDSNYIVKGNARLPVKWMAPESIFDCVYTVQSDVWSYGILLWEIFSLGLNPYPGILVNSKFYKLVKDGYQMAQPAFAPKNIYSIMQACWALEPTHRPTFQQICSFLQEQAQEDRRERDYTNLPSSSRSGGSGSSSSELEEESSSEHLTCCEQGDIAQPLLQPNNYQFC

Question: For `Cc1cc(Nc2ncc3ncc(=O)n(-c4ccc(N)cc4)c3n2)ccc1N1CCN(C)CC1`, which Activity [1] is on record?
Answer: 65.64%

Question: And the Activity [2]?
Answer: 0%

Question: And the Activity [3]?
Answer: 0%

Question: What about the Activity [4] of the same compound?
Answer: Dose-dependent effect

Question: What about the Activity [5] of the same compound?
Answer: 12%

Question: What about the viability at 0.001 µM [6] of the same compound?
Answer: 90.3%

Question: And the Activity [7]?
Answer: 6.09%

Question: And the Activity [8]?
Answer: 3.34%

Question: And the viability at 0.1 µM [9]?
Answer: 60.3%

Question: And the Activity [10]?
Answer: 23%

Question: And the Activity [11]?
Answer: 0.25%

Question: And the clearance [12]?
Answer: 142 mL/min/kg

Question: What about the Vd [13] of the same compound?
Answer: 27.7 L/kg

Question: What about the Tmax [14] of the same compound?
Answer: 2.17 h

Question: What about the IC50 [15] of the same compound?
Answer: 2.12 µM

Question: And the IC50 [16]?
Answer: 1.93 µM

Question: What about the inhibition in vivo at 25 mg/kg [17] of the same compound?
Answer: 129%

Question: And the Kd [18]?
Answer: 0.0069 µM

Question: And the Activity [19]?
Answer: Active

Question: What about the Activity [20] of the same compound?
Answer: 16.38%

Question: What about the Activity [21] of the same compound?
Answer: < 1%

Question: And the Activity [22]?
Answer: < 1%

Question: And the Activity [23]?
Answer: < 1%

Question: What about the IC50 [24] of the same compound?
Answer: 0.00156 µM

Question: What about the IC50 [25] of the same compound?
Answer: 4.12 µM
